Test results as given in US20260027073A1, “USE OF SMALL-MOLECULE COMPOUND HAVING NAPHTHYLAMINE STRUCTURE” (HANGZHOU PHECDAMED CO., LTD., priority 2023, published 2026).

Legend:
[1] = test system: rats with 5/6 nephrectomy; assay: 5/6 nephrectomy-induced renal injury; assay type: in vivo, SD rats
Procedure: 5/6 nephrectomy directly leads to a large reduction of renal units, high workload of residual renal units, and combined hypertension (or non-hypertension), and these features are similar to the symptoms of patients with clinical nephrectomy, CKD hypertensive syndrome, and solitary kidney, and like, and the pathological changes are dominated by glomerulosclerosis and tubulo-fibrosis, which is a good model for the study of CKD. The model was prepared as follows, 230-250 g male SD rats were anesthetized with isoflurane gas, and an incision of about 3 cm at 1 cm left and below of the cribriform ridge corner was made, fully exposing the left kidney, and after exposing the kidney in the sham group, the muscle and skin were sutured with sutures, during which there was no ligation and no resection. In the model group, about ⅓ of the cortex of the upper and lower left kidney was cut with ophthalmic surgical scissors, and was pressed with the absorbable gelatin sponge to stop bleeding for 3 min, then the hemostatic clip was released, and whether there is obvious bleeding was observed and the residual kidney was reset, and the muscle and skin were sutured with sutures. After 1 week, the second surgery was performed, and after fully exposing the right kidney, the renal pedicle and the ureter were ligated, and the right kidney was resected. Similarly, in the sham group, after exposing the kidney, the muscle and skin were sutured with sutures, during which there was no ligation and no resection. Penicillin (80 kU/rat) was routinely injected for three days after surgery. […] In the experiment, 10 d after the end of the right nephrectomy surgery, the serum creatinine level of rats increased, which was statistically significant compared to the sham group, and began to be administered in groups.
The experiments were conducted in sham group (exposing both kidneys without resection), Control group (model group, given vehicle treatment by oral gavage), and 15 mg/kg I-1 group (15 mg/kg by oral gavage), respectively, during the experimental period, a drug was administered once a day for a total of 27 days, and the 24-hour urine of the rats in each group was collected by metabolism cages on the 28th day to measure the volume of urine, urine creatinine, and urine protein. At the same time, blood was collected from the heart, and the blood was centrifuged at 12000 g for 10 min at 4° C. after standing at room temperature for 45 min, the supernatant (serum) was taken to measure the creatinine level in the serum, and finally the creatinine clearance was calculated. After euthanasia of rats at endpoint of the test, the kidneys were dissected and removed, in which four kidneys of rats were fixed with 4% paraformaldehyde for 48 h, paraffin-embedded, sectioned, and HE stained as described above.

[2] = In vitro liver microsomal stability test
Procedure: Ketanserin was selected as the reference compound. The specific method was as follows:
0.1 M K3PO4 (pH 7.4) buffer and 3×NADPH stock solution (6 mM, 5 mg/mL) were configured and preheated in a 37° C. water bath; configuration of the test compounds and the control compounds (spiking solution): adding 5 μL of the compound stock solution ([…]) into 95 μL of acetonitrile; configuration of 1.5 μM spiking solution in microsomes (0.75 mg/mL): adding 1.5 μL of spiking solution and 18.75 μL of liver microsomal solution (20 mg/mL) into 479.75 μL of K3PO4 buffer; adding 30 μL of spiking solution in microsomes into the multiwell plate, and incubating at 37° C. for 5 min; adding 15 μL of NADPH storage solution into each well to start to react, and timing; adding 150 μL of acetonitrile solution containing IS at 0 min, 5 min, 15 min, 30 min, and 45 min, respectively, stopping the reaction; oscillating for 10 min, and then centrifuging at 6,000 rpm for 15 min; taking 80 μL of supernatant from each well for LC/MS detection, and calculating T1/2.

[3] = test system: middle artery occlusion model in rats; assay: Stroke: middle cerebral artery occlusion (MCAO); assay type: in vivo, SD rats; conditions: for escape latency (water maze) / number of crossing over the platform (water maze) / apoptosis rate of hippocampal neurons (flow cytometry): 30 mg/kg oral gavage; for escape latency (water maze) / number of crossing over the platform (water maze): 8 weeks; for escape latency (water maze): FIG. 82; for number of crossing over the platform (water maze): FIG. 83; for apoptosis rate of hippocampal neurons (flow cytometry): FIG. 84
Description: 7-8 weeks-old SD male rats were selected and adaptively fed for one week to establish a middle artery occlusion model in rats. After inducing anesthesia in rats using a small animal anesthesia machine, the anesthesia was immediately switched to maintenance, the rats were fixed in the supine position on the operating table, the neck in the middle and the right side of the operative part were shaved, and an incision was made in the middle of the neck after disinfection with alcohol and iodine vapors, and the carotid artery was separated along the tissues under the microscope, to avoid damaging blood vessels and nerves and to reduce the amount of hemorrhage; the electrocoagulation pen was used to cut off small arteries in the paracarotid branch and ligate the external carotid artery, and an another loose knot was played for backup; arterial clips were used to clip the proximal end of internal carotid artery and common carotid artery; the external carotid artery was cut with surgical scissors in the […], the filament was inserted carefully, and the marking point reached the bifurcation of internal and external carotid arteries, which meant that the head of the filament has already reached the middle cerebral artery; the skin was sutured, the symptoms were observed when the animal waked up, and the neurological function was evaluated; the suture line was cut open two hours after the surgery, the filament was drawn out, and ligature the remnant of external carotid artery was ligated tightly. The skin was re-sutured and attention was paid to the postoperative care of the rats. After modeling, drug administration was started in groups, which were divided into three groups: model group (model, treated with 0.5% CMC-Na by oral gavage, n=8) TJ01-013 treatment group (TJ01-013, 30 mg/kg TJ01-013 by oral gavage, n=8), and I-14-1 treatment group (I-14-1, 30 mg/kg I-14-1 by oral gavage, n=8). 8). Another normal control group (Control, 0.5% CMC-Na treatment by oral gavage, n=8) was set up, with performing the corresponding surgical operation, but no carotid artery was ligated and no filament insertion was performed, and the normal control group was administered for a total of 8 weeks, and at the end of the administration, the cognitive function of the rats was examined by using the water maze.
The night before the experiment begins, clean the laboratory and the water maze, the old water in the water maze is drained, the animal excreta should be cleaned up, and the laboratory is ventilated and free of special odor. The water maze was filled with fresh water, and the height of the water surface should be about 2 cm higher than the platform, and the four groups of rats underwent the water maze acclimatization training for 5 days. The above training was divided into a 4-day localization navigation experiment and a 1-day spatial exploration experiment. The water maze device was a circular pool, which was divided into quadrants I, II, III and IV with four equidistant points on the wall, and a circular hidden platform was placed in the center of the fourth quadrant. References were around the pool and kept unchanged, the pool and the platform were black, and black ink was poured into the water and mixed thoroughly so that the rats could not see the circular platform. The temperature of the water was kept at 22˜24° C. and the light in the room was stabilized. For each group of rats, a water maze test was performed at the end of drug administration to examine the cognitive status of the experimental animals. […] The four groups of rats underwent this training for 4 days, four times a day, two times in the morning and two times in the afternoon. At the end of each day, the experimenter thoroughly cleaned the water maze apparatus to prevent the odor of the rats in the water maze from affecting the results of the second day of the experiment. […]

liver microsomal stability (elimination half-life T1/2) ([2]; in vitro mouse or human liver microsomal environment, FIG. 19)	SMILES	24 h urine protein content ([1]; 15 mg/kg oral gavage, 27 days, FIG. 6)	blood creatinine level ([1]; 15 mg/kg oral gavage, 27 days, P<0.001, FIG. 5)	body weight ([1]; 15 mg/kg oral gavage, 27 days, vs model group, P<0.05, FIG. 4)	degree of lesions in the renal tissues (HE staining) ([1]; 15 mg/kg, 27 days, FIG. 8)	creatinine clearance rate ([1]; 15 mg/kg, 27 days, vs model control, FIG. 7)	Renal lesions (number of kidneys, n = 4) ([1]; Degree of lesion +++ (severe lesions), 15 mg/kg)	Renal lesions (number of kidneys, n = 4) ([1]; Degree of lesion ± (slight lesions), 15 mg/kg)	Renal lesions (number of kidneys, n = 4) ([1]; Degree of lesion − (no lesions seen), 15 mg/kg)	liver microsomal stability (elimination half-life T1/2) ([2]; microsomes)	escape latency (water maze) [3]	number of crossing over the platform (water maze) [3]	apoptosis rate of hippocampal neurons (flow cytometry) [3]	therapeutic effect of TJ01-013 compared with I-14-1 ([3]; per readout of the block)	protection against 5/6 nephrectomy-induced renal injury compared with I-1 group ([1]; UMI-77 vs I-1)
–	O=C(O)C[S+]([O-])c1cc(NS(=O)(=O)c2ccc(Br)cc2)c2ccccc2c1O (stereo not drawn) [I-1]	significantly reduced	significantly reduced	significant increase	improved the degree of lesions	improvement trend	0	0	0	superior liver microsomal stability	shorten the escape latency	increased	significantly reduce	significantly better	–
–	O=C(O)C[S+]([O-])c1cc(NS(=O)(=O)c2ccc(C(F)(F)F)cc2)c2ccccc2c1O (stereo not drawn) [I-14-1]	–	–	–	–	–	–	–	–	–	shorten the escape latency	increased	significantly reduce	–	–
unstable	O=C(O)CSc1cc(NS(=O)(=O)c2ccc(Br)cc2)c2ccccc2c1O [UMI-77, reference compound]	–	–	–	–	–	–	–	–	–	–	–	–	–	less protective
